Laboratory results published in US10913727B2, “Modulators of the integrated stress pathway” (Calico Life Sciences LLC, priority 2016, dated 2021).
pEC50: −log10 of the molar value.

These molecules were tested on HEK293T cells carrying the ATF4 luciferase reporter (assay: ATF4-Luc assay, in vitro model of Vanishing Cell White Matter Disease (VWMD)). Settings: Homo sapiens, HEK-293T, 1 μg/mL tunicamycin, 7 hours, One Glo luminescence.
Format: cell-based
In short: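 Compound at 200 nM and tunicamycin at 1 μg/mL were given together for 7 h to HEK293T cells stably transduced with an ATF4 5′-UTR-driven firefly luciferase reporter. Read-out by luminescence, reported as EC50.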
O=C(COc1ccc(Cl)c(F)c1)NC12CC(Nc3nc(Cl)cc4nccn34)(C1)C2 [Compound 428, 2-(4-chloro-3-fluorophenoxy)-N-{3-[(7-chloroimidazo[1,2-c]pyrimidin-5-yl)amino]bicyclo[1.1.1]pentan-1-yl}acetamide] gave a pEC50 of 6.00 to 6.60. Molecule Cc1nc(C(=O)NC23CCC(NC(=O)COc4ccc(Cl)c(F)c4)(CC2)[C@H](O)C3)c(C)s1 [Compound 497, N-{(3R)-4-[2-(4-chloro-3-fluorophenoxy)acetamido]-3-hydroxybicyclo[2.2.2]octan-1-yl}-2,5-dimethyl-1,3-thiazole-4-carboxamide] has a pEC50 of 6.00 to 6.60. Molecule CC(C)c1cc(C(=O)NC23CC(NC(=O)COc4ccc(Cl)c(F)c4)(C2)C3)n(C)n1 [Compound 364, N-{3-[2-(4-chloro-3-fluorophenoxy)acetamido]bicyclo[1.1.1]pentan-1-yl}-1-methyl-3-(propan-2-yl)-1H-pyrazole-5-carboxamide] has a pEC50 of 6.60 to 7.30. In the case of CCc1ccc(C(=O)NC23CC(NC(=O)COc4ccc(Cl)c(F)c4)(C2)C3)o1 [Compound 250, N-{3-[2-(4-chloro-3-fluorophenoxy)acetamido]bicyclo[1.1.1]pentan-1-yl}-5-ethylfuran-2-carboxamide], the pEC50 was > 7.30. Cc1cc2c(NC34CC(NC(=O)COc5ccc6c(c5)OC(F)(F)O6)(C3)C4)nccn2n1 [Compound 422, 2-[(2,2-difluoro-2H-1,3-benzodioxol-5-yl)oxy]-N-{3-[(2-methylpyrazolo[1,5-a]pyrazin-4-yl)amino]bicyclo[1.1.1]pentan-1-yl}acetamide] was tested, and the pEC50 was 6.60 to 7.30. For O=C(COc1ccc(Cl)c(F)c1)NC12CC(NC(=O)c3ccc(-c4ccccc4)cn3)(C1)C2 [Compound 928, N-{3-[2-(4-chloro-3-fluorophenoxy)acetamido]bicyclo[1.1.1]pentan-1-yl}-5-phenylpyridine-2-carboxamide], the pEC50 was 6.60 to 7.30. With O=C(COc1ccc(Cl)c(F)c1)NC12CC(NC(=O)c3cscn3)(C1)C2 [Compound 308, N-{3-[2-(4-chloro-3-fluorophenoxy)acetamido]bicyclo[1.1.1]pentan-1-yl}-1,3-thiazole-4-carboxamide] the pEC50 was 6.00 to 6.60. For COCc1nc(C(=O)NC23CC(NC(=O)COc4ccc(Cl)c(Cl)c4)(C2)C3)cs1 [Compound 925, N-{3-[2-(3,4-dichlorophenoxy)acetamido]bicyclo[1.1.1]pentan-1-yl}-2-(methoxymethyl)-1,3-thiazole-4-carboxamide], the pEC50 was > 7.30. O=C(COc1ccc(Cl)c(F)c1)NC12CC(Nc3cnc(C(F)(F)F)cn3)(C1)C2 [Compound 102, 2-(4-chloro-3-fluorophenoxy)-N-(3-{[5-(trifluoromethyl)pyrazin-2-yl]amino}bicyclo[1.1.1]pentan-1-yl)acetamide] was tested, and the pEC50 was 5.70 to 6.00. O=C(COc1ccc(Cl)c(F)c1)NC12CCC(NC(=O)c3cc(Cc4ccc(Cl)cc4)no3)(CC1)CC2O (stereo not drawn) [Compound 410, N-{4-[2-(4-chloro-3-fluorophenoxy)acetamido]-3-hydroxybicyclo[2.2.2]octan-1-yl}-3-[(4-chlorophenyl)methyl]-1,2-oxazole-5-carboxamide] showed a pEC50 of 6.60 to 7.30. Cc1cc(C(=O)NC23CC(NC(=O)COc4ccc(Cl)c(F)c4)(C2)C3)sn1 [Compound 564, N-{3-[2-(4-chloro-3-fluorophenoxy)acetamido]bicyclo[1.1.1]pentan-1-yl}-3-methyl-1,2-thiazole-5-carboxamide] was tested, and the pEC50 was 6.60 to 7.30. O=C(COc1ccc(Cl)c(F)c1)NC12CC(NC(=O)c3cc(-n4cncn4)ccn3)(C1)C2 [Compound 481, N-{3-[2-(4-chloro-3-fluorophenoxy)acetamido]bicyclo[1.1.1]pentan-1-yl}-4-(1H-1,2,4-triazol-1-yl)pyridine-2-carboxamide] gave a pEC50 of 5.70 to 6.00. For O=C(COc1ccc(Cl)c(F)c1)NC12CC(NC(=O)c3ccnc(C(=O)O)c3)(C1)C2 [Compound 280, 4-({3-[2-(4-chloro-3-fluorophenoxy)acetamido]bicyclo[1.1.1]pentan-1-yl}carbamoyl)pyridine-2-carboxylic acid], the pEC50 was < 5.70. With O=C(COc1ccc(Cl)c(F)c1)NC12CCC(NC(=O)c3ccsn3)(CC1)C[C@@H]2O [Compound 695, N-{(3S)-4-[2-(4-chloro-3-fluorophenoxy)acetamido]-3-hydroxybicyclo[2.2.2]octan-1-yl}-1,2-thiazole-3-carboxamide] the pEC50 was > 7.30. In the case of O=C(COc1ccc(Cl)c(F)c1)NC12CCC(NC(=O)c3cn4cc(F)ccc4n3)(CC1)CC2O (stereo not drawn) [Compound 600, N-{4-[2-(4-chloro-3-fluorophenoxy)acetamido]-3-hydroxybicyclo[2.2.2]octan-1-yl}-6-fluoroimidazo[1,2-a]pyridine-2-carboxamide], the pEC50 was 6.00 to 6.60. O=C(COc1ccc(Cl)c(F)c1)NC12CC(NC(=O)c3ccc4ncsc4c3)(C1)C2 [Compound 773, N-{3-[2-(4-chloro-3-fluorophenoxy)acetamido]bicyclo[1.1.1]pentan-1-yl}-1,3-benzothiazole-6-carboxamide] was tested, and the pEC50 was < 5.70. O=C(COc1ccc(Cl)c(F)c1)NC12CC(NC(=O)c3ncc(Cl)cc3F)(C1)C2 [Compound 770, 5-chloro-N-{3-[2-(4-chloro-3-fluorophenoxy)acetamido]bicyclo[1.1.1]pentan-1-yl}-3-fluoropyridine-2-carboxamide] showed a pEC50 of 5.70 to 6.00. CC(=O)N1CC=C(c2ncc(C(=O)NC34CC(NC(=O)COc5ccc(Cl)c(F)c5)(C3)C4)o2)CC1 [Compound 151, 2-(1-acetyl-1,2,3,6-tetrahydropyridin-4-yl)-N-{3-[2-(4-chloro-3-fluorophenoxy)acetamido]bicyclo[1.1.1]pentan-1-yl}-1,3-oxazole-5-carboxamide] was tested, and the pEC50 was < 5.70. In the case of N#Cc1ccc(C(=O)NC23CC(NC(=O)COc4ccc(Cl)c(F)c4)(C2)C3)s1 [Compound 885, N-{3-[2-(4-chloro-3-fluorophenoxy)acetamido]bicyclo[1.1.1]pentan-1-yl}-5-cyanothiophene-2-carboxamide], the pEC50 was < 5.70. Molecule O=C(COc1ccc(Cl)c(F)c1)NC12CC(NC(=O)c3cnc(C4CC4)cn3)(C1)C2 [Compound 266, N-{3-[2-(4-chloro-3-fluorophenoxy)acetamido]bicyclo[1.1.1]pentan-1-yl}-5-cyclopropylpyrazine-2-carboxamide] has a pEC50 of 6.60 to 7.30. For O=C(COc1ccc(Cl)c(Cl)c1)NC12CC(NC(=O)c3cccnc3)(C1)C2 [Compound 456, N-{3-[2-(3,4-dichlorophenoxy)acetamido]bicyclo[1.1.1]pentan-1-yl}pyridine-3-carboxamide], the pEC50 was 6.60 to 7.30. Work on O=C(COc1ccc(Cl)c(F)c1)NC12CC(NC(=O)c3ccc(C(F)F)cc3)(C1)C2 [Compound 191, N-{3-[2-(4-chloro-3-fluorophenoxy)acetamido]bicyclo[1.1.1]pentan-1-yl}-4-(difluoromethyl)benzamide] yielded a pEC50 of 6.60 to 7.30. Molecule CCOc1ccc(C(=O)NC23CC(NC(=O)COc4ccc(Cl)c(F)c4)(C2)C3)cc1 [Compound 351, N-{3-[2-(4-chloro-3-fluorophenoxy)acetamido]bicyclo[1.1.1]pentan-1-yl}-4-ethoxybenzamide] has a pEC50 of 6.60 to 7.30. O=C(COc1ccc(Cl)c(F)c1)NC12CCC(NC(=O)c3cccc[n+]3[O-])(CC1)CC2O (stereo not drawn) [Compound 944, N-{4-[2-(4-chloro-3-fluorophenoxy)acetamido]-3-hydroxybicyclo[2.2.2]octan-1-yl}-1-oxo-1λ^5-pyridine-2-carboxamide] was tested, and the pEC50 was < 5.70. O=C(COc1ccc(Cl)c(F)c1)NC12CC(Nc3cccc(-c4ccc(Cl)cc4)n3)(C1)C2 [Compound 398, 2-(4-chloro-3-fluorophenoxy)-N-(3-{[6-(4-chlorophenyl)pyridin-2-yl]amino}bicyclo[1.1.1]pentan-1-yl)acetamide] was tested, and the pEC50 was < 5.70. In the case of N#Cc1ccsc1C(=O)NC12CC(NC(=O)COc3ccc(Cl)c(F)c3)(C1)C2 [Compound 860, N-{3-[2-(4-chloro-3-fluorophenoxy)acetamido]bicyclo[1.1.1]pentan-1-yl}-3-cyanothiophene-2-carboxamide], the pEC50 was 5.70 to 6.00. In the case of CCc1cc(C(=O)NC23CC(NC(=O)COc4ccc(Cl)c(F)c4)(C2)C3)n(C)n1 [Compound 254, N-{3-[2-(4-chloro-3-fluorophenoxy)acetamido]bicyclo[1.1.1]pentan-1-yl}-3-ethyl-1-methyl-1H-pyrazole-5-carboxamide], the pEC50 was > 7.30. Work on COc1ccc(F)cc1C(=O)NC12CC(NC(=O)COc3ccc(Cl)c(F)c3)(C1)C2 [Compound 540, N-{3-[2-(4-chloro-3-fluorophenoxy)acetamido]bicyclo[1.1.1]pentan-1-yl}-5-fluoro-2-methoxybenzamide] yielded a pEC50 of 6.00 to 6.60. CC(=O)Nc1cccc(C(=O)NC23CC(NC(=O)COc4ccc(Cl)c(F)c4)(C2)C3)n1 [Compound 884, 6-acetamido-N-{3-[2-(4-chloro-3-fluorophenoxy)acetamido]bicyclo[1.1.1]pentan-1-yl}pyridine-2-carboxamide] showed a pEC50 of 6.00 to 6.60. O=C(COc1ccc(Cl)c(F)c1)NC12CCC(NC(=O)c3ccncc3)(CC1)C(O)C2 (stereo not drawn) [Compound 218, N-{4-[2-(4-chloro-3-fluorophenoxy)acetamido]-2-hydroxybicyclo[2.2.2]octan-1-yl}pyridine-4-carboxamide] was tested, and the pEC50 was < 5.70. In the case of COc1ccc(C(=O)NC23CC(NC(=O)COc4ccc(Cl)c(F)c4)(C2)C3)c(F)c1 [Compound 518, N-{3-[2-(4-chloro-3-fluorophenoxy)acetamido]bicyclo[1.1.1]pentan-1-yl}-2-fluoro-4-methoxybenzamide], the pEC50 was 6.00 to 6.60. Work on O=C(COc1ccc(Cl)c(F)c1)NC12CC(NC(=O)c3cnsn3)(C1)C2 [Compound 895, N-{3-[2-(4-chloro-3-fluorophenoxy)acetamido]bicyclo[1.1.1]pentan-1-yl}-1,2,5-thiadiazole-3-carboxamide] yielded a pEC50 of 6.00 to 6.60. O=C(COc1ccc(Cl)c(Cl)c1)NC12CC(NC(=O)c3ccc(C(F)F)nc3)(C1)C2 [Compound 927, N-{3-[2-(3,4-dichlorophenoxy)acetamido]bicyclo[1.1.1]pentan-1-yl}-6-(difluoromethyl)pyridine-3-carboxamide] gave a pEC50 of 6.60 to 7.30.
